Converted amounts (≈) assume the structure as drawn. Where two headings read alike, the source gives them in different places. Square brackets hold non-standard residues; d marks the D form. Peptide text beside a SMILES is read from it. * marks the point of attachment. Fmoc = O=C(OCC1c2ccccc2-c2ccccc21)*
Legend:
[1] = system: Staphylococcus aureus ATCC 29213
Experimental: (§1) Escherichia coli ATCC 25922 and P. aeruginosa ATCC 27853 were used as Gram-negative (-) and Staphylococcus aureus ATCC 29213 as Gram-positive (+) bacteria. Bacteria were grown overnight at 37° C. in Mueller-Hinton (MH) broth. This culture was reinoculated and incubated at 37° C. to reach the exponential phase of bacteria growth, i.e., a final bacterial suspension containing 10^5 to 5×10^5 colony-forming units (CFU)/ml. The concentration of cells was established by plating 100 μl of different dilutions of the culture solution (e.g., 10^-2, 10^-3 and 10^-4) onto solid agar plates.
(§2) Following an overnight incubation at 37° C., the CFU thus formed were counted on each agar plate. In 96-well tissue culture plates, as control blanks, eight wells per plate contained only medium, while as a positive growth control, eight other wells contained medium plus cells.
(§3) The plates were incubated overnight at 37° C., and the optical density (OD) determined at 620 nm after different times of incubation.

[2] = system: Streptococcus sanguis ATCC 10556
Experimental: Streptococcus sanguis ATCC 10556 (Gram-positive (+) bacteria present in tooth crevices) was grown overnight at 37° C. in Brain Heart Infusion (BHI) broth. This culture was reinoculated and incubated at 37° C. to reach the exponential phase of bacteria growth, i.e., a final bacterial suspension containing 10^5 to 5×10^5 colony-forming units (CFU)/ml. The concentration of cells was established by plating 100 μl of different dilutions of the culture solution (e.g., 10^-2, 10^-4) and 10^-4) onto solid agar plates. Following an overnight incubation at 37° C., the CFU thus formed were counted on each agar plate. In 96-well tissue culture plates, as control blanks, eight wells per plate contained only medium, while as a positive growth control, eight other wells contained medium plus cells. […] The plates were incubated overnight at 37° C., and the optical density (OD) determined at 620 nm after 20 to 24 hours incubation.

[3] = system: Candida albicans ATCC 10231
[4] = system: Human red blood cells (RBCs); experiment: Hemolytic activity; type: cell-based; settings: Tables 18-21
[5] = system: Escherichia coli ATCC 25922
Experimental: as §1, §2, §3

melittin = melittin (Apis mellifera, UniProt P01501); experiment: cell-based; settings: read-out: IC50, inhibition of melittin (converted)
[6] = Tables 2-5, concentration necessary to inhibit 50% growth
[7] = Tables 7-9, lower parts (unnatural amino acids)
[8] = Tables 11-13, lower parts (unnatural amino acids)
[9] = Tables 15-17, lower parts (unnatural amino acids)
[10] = Tables 3-5, lower parts (unnatural amino acids)

Sequence of melittin (P01501 44-69 limits assumed): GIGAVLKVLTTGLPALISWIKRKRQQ

| Compound | IC50 against S. aureus ([1]; Tables 6-9) | IC50 against S. sanguis ([2]; Tables 10-13) | IC50 against C. albicans ([3]; Tables 14-17) | IC50 (melittin) | other results |
| --- | --- | --- | --- | --- | --- |
| C[C@@H](NC(=O)[C@H](CCCCN)NC(=O)[C@H](Cc1c[nH]c2ccccc12)NC(=O)[C@H](CCCCN)NC(=O)OCC1c2ccccc2-c2ccccc21)C(N)=O [(KFmoc)WKa-NH2] (Fmoc-KWK[dA]-NH2) | 7 µg/mL (≈ 9.3 µM) | 8 µg/mL (≈ 10.6 µM) | 200 µg/mL (≈ 266 µM) | – | HD50 (concentration necessary to lyse 50% of the cells) [4]: 437 µg/mL; IC50 against E. coli [5, 6]: 60 µg/mL (≈ 79.7 µM) |
| NCCCC[C@H](NC(=O)OCC1c2ccccc2-c2ccccc21)C(=O)N[C@@H](Cc1c[nH]c2ccccc12)C(=O)N[C@@H](CCCCN)C(=O)N[C@H](CS)C(N)=O [(KFmoc)WKc-NH2] (Fmoc-KWK[dC]-NH2) | 4 µg/mL (≈ 5.1 µM) | 4 µg/mL (≈ 5.1 µM) | 243 µg/mL (≈ 310 µM) | – | HD50 (concentration necessary to lyse 50% of the cells) [4]: 25 µg/mL; IC50 against E. coli [5, 6]: 23 µg/mL (≈ 29.3 µM) |
| NCCCC[C@H](NC(=O)OCC1c2ccccc2-c2ccccc21)C(=O)N[C@@H](Cc1c[nH]c2ccccc12)C(=O)N[C@@H](CCCCN)C(=O)N[C@H](Cc1ccccc1)C(N)=O [(KFmoc)WKf-NH2] (Fmoc-KWK[dF]-NH2) | 10 µg/mL (≈ 12.1 µM) | 6 µg/mL (≈ 7.24 µM) | 133 µg/mL (≈ 160 µM) | – | HD50 (concentration necessary to lyse 50% of the cells) [4]: 126 µg/mL; IC50 against E. coli [5, 6]: 38 µg/mL (≈ 45.8 µM) |
| NCCCC[C@H](NC(=O)OCC1c2ccccc2-c2ccccc21)C(=O)N[C@@H](Cc1c[nH]c2ccccc12)C(=O)N[C@@H](CCCCN)C(=O)N[C@H](Cc1c[nH]cn1)C(N)=O [(KFmoc)WKh-NH2] (Fmoc-KWK[dH]-NH2) | 6 µg/mL (≈ 7.33 µM) | 6 µg/mL (≈ 7.33 µM) | 156 µg/mL (≈ 190 µM) | – | HD50 (concentration necessary to lyse 50% of the cells) [4]: 313 µg/mL; IC50 against E. coli [5, 6]: 52 µg/mL (≈ 63.5 µM) |
| CC[C@@H](C)[C@@H](NC(=O)[C@H](CCCCN)NC(=O)[C@H](Cc1c[nH]c2ccccc12)NC(=O)[C@H](CCCCN)NC(=O)OCC1c2ccccc2-c2ccccc21)C(N)=O [(KFmoc)WKi-NH2] (Fmoc-KWK[dI]-NH2) | 9 µg/mL (≈ 11.3 µM) | 8 µg/mL (≈ 10.1 µM) | 209 µg/mL (≈ 263 µM) | – | HD50 (concentration necessary to lyse 50% of the cells) [4]: 296 µg/mL; IC50 against E. coli [5, 6]: 23 µg/mL (≈ 28.9 µM) |
| NCCCC[C@H](NC(=O)OCC1c2ccccc2-c2ccccc21)C(=O)N[C@@H](Cc1c[nH]c2ccccc12)C(=O)N[C@@H](CCCCN)C(=O)N[C@H](CCCCN)C(N)=O [(KFmoc)WKk-NH2] (Fmoc-KWK[dK]-NH2) | 8 µg/mL (≈ 9.88 µM) | 7 µg/mL (≈ 8.64 µM) | 126 µg/mL (≈ 156 µM) | – | – |
| NCCCC[C@H](NC(=O)OCC1c2ccccc2-c2ccccc21)C(=O)N[C@@H](Cc1c[nH]c2ccccc12)C(=O)N[C@@H](CCCCN)C(=O)N[C@H](CC(N)=O)C(N)=O [(KFmoc)WKn-NH2] (Fmoc-KWK[dN]-NH2) | 10 µg/mL (≈ 12.6 µM) | 8 µg/mL (≈ 10.1 µM) | 233 µg/mL (≈ 293 µM) | – | IC50 against E. coli [5, 6]: 47 µg/mL (≈ 59 µM) |
| NCCCC[C@H](NC(=O)OCC1c2ccccc2-c2ccccc21)C(=O)N[C@@H](Cc1c[nH]c2ccccc12)C(=O)N[C@@H](Cc1ccc(O)cc1)C(=O)N[C@H](CS)C(N)=O [(KFmoc)WYc-NH2] (Fmoc-KWY[dC]-NH2) | 21 µg/mL (≈ 25.6 µM) | 42 µg/mL (≈ 51.2 µM) | – | – | – |
| NCCCC[C@H](NC(=O)OCC1c2ccccc2-c2ccccc21)C(=O)N[C@@H](Cc1c[nH]c2ccccc12)C(=O)N[C@@H](Cc1ccc(O)cc1)C(=O)N[C@H](CC(N)=O)C(N)=O [(KFmoc)WYn-NH2] (Fmoc-KWY[dN]-NH2) | 6 µg/mL (≈ 7.22 µM) | 8 µg/mL (≈ 9.63 µM) | – | – | HD50 (concentration necessary to lyse 50% of the cells) [4]: 257 µg/mL |
| CC[C@@H](C)[C@@H](NC(=O)[C@@H](Cc1ccccc1)NC(=O)[C@H](Cc1c[nH]c2ccccc12)NC(=O)[C@H](CCCCN)NC(=O)OCC1c2ccccc2-c2ccccc21)C(N)=O [(KFmoc)Wfi-NH2] (Fmoc-KW[dF][dI]-NH2) | 4 µg/mL (≈ 4.91 µM) | 4 µg/mL (≈ 4.91 µM) | – | – | – |
| NCCCC[C@H](NC(=O)OCC1c2ccccc2-c2ccccc21)C(=O)N[C@@H](Cc1c[nH]c2ccccc12)C(=O)N[C@H](Cc1ccccc1)C(=O)N[C@H](Cc1ccc(O)cc1)C(N)=O [(KFmoc)Wfy-NH2] (Fmoc-KW[dF][dY]-NH2) | 15 µg/mL (≈ 17.4 µM) | 17 µg/mL (≈ 19.7 µM) | – | – | – |
| CC[C@@H](C)[C@@H](NC(=O)[C@@H](CS)NC(=O)[C@H](CCCCN)NC(=O)OCC1c2ccccc2-c2ccccc21)C(=O)N[C@H](C)C(N)=O [(KFmoc)cia-NH2] (Fmoc-K[dC][dI][dA]-NH2) | – | 59 µg/mL (≈ 90.1 µM) | – | – | HD50 (concentration necessary to lyse 50% of the cells) [4]: 77 µg/mL |
| CC[C@@H](C)[C@@H](NC(=O)[C@@H](CS)NC(=O)[C@H](CCCCN)NC(=O)OCC1c2ccccc2-c2ccccc21)C(=O)N[C@H](Cc1ccccc1)C(N)=O [(KFmoc)cif-NH2] (Fmoc-K[dC][dI][dF]-NH2) | 21 µg/mL (≈ 28.7 µM) | – | 218 µg/mL (≈ 298 µM) | – | – |
| (KFmoc)WK(Cys[ACM])-NH2 | 11 µg/mL | 11 µg/mL | 303 µg/mL | – | IC50 against E. coli [5, 6]: 49 µg/mL |
| (KFmoc)WK(Hyp)-NH2 | 10 µg/mL | 10 µg/mL | 370 µg/mL | – | IC50 against E. coli [5, 6]: 62 µg/mL |
| (KFmoc)WK(KCBZ)-NH2 | 9 µg/mL | 9 µg/mL | 161 µg/mL | – | – |
| (KFmoc)WY(Hyp)-NH2 | – | – | – | – | IC50 against S. aureus [1, 7]: 9 μg/m; IC50 against S. sanguis [2, 8]: 10 μg/m; HD50 (concentration necessary to lyse 50% of the cells) [4]: 81 µg/mL |
| (KFmoc)WY(KCBZ)-NH2 | – | – | – | – | IC50 against S. aureus [1, 7]: 9 μg/m; IC50 against S. sanguis [2, 8]: 9 μg/m; IC50 against C. albicans [3, 9]: 309 μg/m; IC50 against E. coli [5, 10]: 59 μg/m |

| Compound | IC50 against S. aureus ([1]; Tables 6-9) | IC50 against S. sanguis ([2]; Tables 10-13) | IC50 against C. albicans ([3]; Tables 14-17) | IC50 (melittin) | other results |
| --- | --- | --- | --- | --- | --- |
| (KFmoc)Wf(7aHa)-NH2 | – | – | – | – | IC50 against S. aureus [1, 7]: 7 μg/m; IC50 against S. sanguis [2, 8]: 10 μg/m |
| (KFmoc)Wf(Cys[ACM])-NH2 | – | – | – | – | IC50 against S. aureus [1, 7]: 18 μg/m; IC50 against S. sanguis [2, 8]: 30 μg/m |
| (KFmoc)ci(Thiopro)-NH2 | – | – | – | – | IC50 against S. aureus [1, 7]: 9 μg/m; IC50 against S. sanguis [2, 8]: 6 μg/m; IC50 against C. albicans [3, 9]: 197 μg/m; IC50 against E. coli [5, 10]: 25 μg/m |
| (KFmoc)ciG-NH2 | – | 23 µg/mL | 372 µg/mL | – | HD50 (concentration necessary to lyse 50% of the cells) [4]: 35 µg/mL |
| Ac-IVIFFT-NH2 [Ac-IVIFFT-NH2] | – | – | – | 30.8 µM | – |
| Ac-IVIFFV-NH2 [Ac-IVIFFV-NH2] | – | – | – | 38.6 µM | – |
| Ac-IVIFFW-NH2 [Ac-IVIFFW-NH2] | – | – | – | 18.5 µM | – |
| Ac-IVIFFY-NH2 [Ac-IVIFFY-NH2] | – | – | – | 24.9 µM | – |
| Ac-IVILLA-NH2 [Ac-IVILLA-NH2] | – | – | – | 22 µM | – |
| Ac-IVILLC-NH2 [Ac-IVILLC-NH2] | – | – | – | > 350 µM | – |
| Ac-IVILLD-NH2 [Ac-IVILLD-NH2] | – | – | – | 24.8 µM | – |
| Ac-IVILLE-NH2 [Ac-IVILLE-NH2] | – | – | – | 10.8 µM | – |
| Ac-IVILLF-NH2 [Ac-IVILLF-NH2] | – | – | – | 27.7 µM | – |
| Ac-IVILLG-NH2 [Ac-IVILLG-NH2] | – | – | – | 25.5 µM | – |
| Ac-IVILLH-NH2 [Ac-IVILLH-NH2] | – | – | – | > 334 µM | – |
| Ac-IVILLI-NH2 [Ac-IVILLI-NH2] | – | – | – | 35.9 µM | – |
| Ac-IVILLK-NH2 [Ac-IVILLK-NH2] | – | – | – | > 338 µM | – |
| Ac-IVILLL-NH2 [Ac-IVILLL-NH2] | – | – | – | 123 µM | – |
